Test results taken from PubChem BioAssay (NCI).
Several values for one entry are separate records, joined by “and”; a condition that tells them apart may be missing. Identical values can stand only once.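 Interpolation was linear, between the two tested concentrations surrounding the appropriate level; five concentrations were tested over 48 hours in 96-well plates. At the GI50, growth is halved. At the TGI there is no net growth.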

Key:
Test in all cases: NCI-60 cell line screen, 48 h
CAKI-1 renal = test system: CAKI-1 renal
UACC-257 melanoma = test system: UACC-257 melanoma
MALME-3M melanoma = test system: MALME-3M melanoma
HOP-62 NSCLC = test system: HOP-62 NSCLC
HL-60(TB) leukemia = test system: HL-60(TB) leukemia
SK-OV-3 ovarian = test system: SK-OV-3 ovarian
KM12 colon = test system: KM12 colon
SK-MEL-2 melanoma = test system: SK-MEL-2 melanoma
NCI/ADR-RES ovarian = test system: NCI/ADR-RES ovarian
SR leukemia = test system: SR leukemia

Row | Structure (SMILES) | TGI (CAKI-1 renal) | TGI (UACC-257 melanoma) | TGI (MALME-3M melanoma) | TGI (HOP-62 NSCLC) [µM] | TGI (HL-60(TB) leukemia) [µM] | TGI (SK-OV-3 ovarian) | TGI (KM12 colon) | TGI (SK-MEL-2 melanoma) | TGI (NCI/ADR-RES ovarian) | GI50 (CAKI-1 renal) [µM] | GI50 (SR leukemia) [µM] | TGI (SR leukemia) [µM] | GI50 (MALME-3M melanoma) | GI50 (HOP-62 NSCLC) [µM] | GI50 (HL-60(TB) leukemia) [µM] | GI50 (KM12 colon) [µM] | GI50 (SK-MEL-2 melanoma) [µM] | GI50 (NCI/ADR-RES ovarian) [µM] | GI50 (UACC-257 melanoma) [µM] | GI50 (SK-OV-3 ovarian) [µM]
1 | O=c1oc2ccc(-n3c(=O)c4ccccc4c4ccccc4c3=O)cc2c2ccccc12 | > 100 µM | > 100 µM | > 100 µM | > 100 | > 100 | > 100 µM | > 100 µM | > 100 µM | > 100 µM |  |  |  |  |  |  |  |  |  |  | 
2 | COc1cc(OC)c(NC(=O)c2cc3ccccc3cc2O)cc1Cl | 6.68 µM |  | 6.04 µM | 6.84 | 7.99 |  | 11.4 µM | 6.14 µM | 9.33 µM | 1.9 | 5.25 | 91.5 | 1.89 µM | 1.98 | 1.91 | 3.07 | 2.25 | 2.63 |  | 
3 | C=C1C(=O)O[C@@H]2C1C[C@@H](O)C(=C)CC/C=C(\C)CCC[C@H](C)[C@H]2OC(C)=O (stereo not given in full) | 14.7 µM | 35.9 µM |  | 30.7 |  | 32.5 µM | 26 µM | 31.1 µM | 14.2 µM | 4.06 |  |  |  | 15.4 |  | 11.4 | 12.9 | 3.38 | 16 | 14.8
4 | C[n+]1ccc(-c2c3nc(c(-c4cc[n+](C)cc4)c4ccc([n-]4)c(-c4cc[n+](C)cc4)c4nc(c(-c5cc[n+](C)cc5)c5ccc2[n-]5)C=C4)C=C3)cc1.[I-].[Zn+2] | 41.7 µM | 30.1 µM | 39.8 µM | 44.2 | 42 | 69.5 µM | 69.5 µM | 47.3 µM |  | 20 | 32.2 | 94.7 | 18.3 µM | 19.9 | 21.5 | 23.3 | 19.1 |  | 9.61 | 33
5 | CC(C)(C)OC(=O)NC(CO)c1cccc(OCc2ccccc2)c1 (stereo not given) | > 100 µM | 99.4 µM | > 100 µM | > 100 | 43.8 | > 100 µM | > 100 µM | > 100 µM |  |  |  | > 100 |  |  |  |  |  |  |  | 
6 | O=c1oc(=O)c2oc3ccccc3oc1=2 | > 100 µM | > 100 µM | > 100 µM | > 100 | > 100 | > 100 µM | > 100 µM | > 100 µM |  |  |  | > 100 |  |  |  |  |  |  |  | 
7 | CCS(=O)(=O)Nc1cccc(Nc2c3cccc(C)c3nc3c(C)cccc23)c1OC | 15.8 µM | 38.5 µM | > 47.4 µM | > 29.3 |  | 29.7 µM | > 31.2 µM | 59.8 µM | 60.2 µM | 0.347 |  |  | 0.901 µM | 0.555 | 0.25 | 2.26 | 10.5 | 3.23 | 2.46 | 1.61
8 | S=C(N/N=C(/c1ccccc1)c1ccccn1)N1CCCCCC1 | 1.87 µM and 2.02 µM | 0.709 µM | 1.96 µM and 2.01 µM | 1.91 | 4.13 | 2.5 µM and 1.31 µM | 1.57 µM and 1.5 µM | 2.12 µM and 2.14 µM | 1.28 µM and 2.54 µM | 0.131 |  |  | 0.0392 µM |  | < 0.001 | 0.0105 | 0.0269 | < 0.001 |  | 0.00173
9 | COc1ccc(-c2nc(N3CCN(C(=O)C4CCCCC4)CC3)c3c4c(sc3n2)CCCC4)cc1 | > 100 µM | > 100 µM | > 100 µM | 86 | > 100 | 71.7 µM | > 100 µM |  | > 100 µM | 60.6 | > 100 | > 100 | 92.1 µM | 27.5 | 70.5 | > 100 |  | > 100 | > 100 | 25.2
10 | COc1ccc(-c2cc(-c3ccc(O)cc3)nc3n[nH]c(N)c23)cc1 | 78.3 µM | 56.9 µM | 44 µM | 53.9 |  |  | 40.7 µM | 35.1 µM | 51.9 µM | 20.2 | 24.1 | > 100 | 21 µM | 21.9 |  | 16.3 | 16.4 | 23.1 | 21.8 | 
11 | O=S(O)CCCSSc1ccccc1 | > 100 µM | > 100 µM | > 100 µM | > 100 |  | > 100 µM | > 100 µM | > 100 µM |  |  |  |  |  |  |  |  |  |  |  | 
12 | CC1=C[P+](Cc2ccccc2)(c2ccccc2)CC1 (stereo not given) |  | > 100 µM and 78 µM | > 100 µM | > 100 | > 100 | > 100 µM | > 100 µM | > 100 µM |  |  |  | > 100 | 19.9 µM and 76.5 µM and 31.2 µM |  |  |  |  |  |  | 
13 | CN(C)CCCNC(=O)c1cncnc1Nc1ccc(OCc2cccc(F)c2)c(Cl)c1 | 3.05 µM | 3.83 µM | 3.02 µM | 3.48 | 3.52 | 3.23 µM | 3.33 µM | 4.07 µM | 3.77 µM | 1.66 |  |  | 1.64 µM | 1.75 | 1.67 | 1.74 | 2.08 | 1.89 | 1.89 | 1.72
14 | COc1cnc2c(c1)C(=O)c1c-2n(CCCNC(C)C)c(=O)c2cc(F)ccc12 |  | 2.07 µM | 0.937 µM | 0.427 | 0.615 | 0.707 µM | 0.851 µM | 1.92 µM | 1.81 µM |  | 0.0758 | 0.839 | 0.197 µM | 0.107 | 0.161 | 0.165 | 0.51 | 0.234 | 0.47 | 0.22
15 | COc1ccc(CNc2nc3cc(N)cc(N)c3nc2-c2ccccc2)cc1 | 35.9 µM | 30.4 µM | 22.5 µM | 34.3 | 51.3 |  | 26.1 µM | 29.1 µM | 83.3 µM | 16.3 | 4.09 | > 100 | 10.7 µM | 17.2 | 13.6 | 13.3 | 14.7 | 22.7 | 16.3 | 
16 | COc1ccc(OC(C(=O)O)c2ccccc2)c2c1CCCC2=O (stereo not given) | > 100 µM | > 100 µM | > 100 µM | > 100 | > 100 | > 100 µM | > 100 µM | > 100 µM |  |  |  |  |  |  |  |  |  |  |  | 
